Each structure is given as a SMILES string. A value given as a limit tells only on which side of the number the result lay.

The target of assay [1] is T1, wild type PKR (Homo sapiens, UniProt P30613). Nature of the assay: PKR (wild type) enzyme AC50 assay, LDH/NADH-coupled, absorbance at 340 nm. Format: biochemical. The conditions noted are these: Table 2; enzyme assay; read-out: PKR WT AC50. The essentials:
(§1)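 LDH/NADH coupling; 40-400 ng/well enzyme; PEP 0.1-0.5 mM, ADP 0.2-1.65 mM, NADH 180 μM, LDH 0.5 units; Tris pH 7.5/KCl/MgCl2 buffer with DTT, BSA. 60 min RT compound preincubation, ADP start, A340 at RT. 11-point 3-fold series from 100 μM.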

The next assay deals with PKR K410E (Homo sapiens, UniProt P30613, K410E). Nature of the assay: PKR mutant assay (K410E), AC50, LDH/NADH-coupled, absorbance at 340 nm. Format: biochemical. Conditions: Table 2; enzyme assay. The essentials: as §1
Sequence of PKR K410E (P30613 whole entry K410E): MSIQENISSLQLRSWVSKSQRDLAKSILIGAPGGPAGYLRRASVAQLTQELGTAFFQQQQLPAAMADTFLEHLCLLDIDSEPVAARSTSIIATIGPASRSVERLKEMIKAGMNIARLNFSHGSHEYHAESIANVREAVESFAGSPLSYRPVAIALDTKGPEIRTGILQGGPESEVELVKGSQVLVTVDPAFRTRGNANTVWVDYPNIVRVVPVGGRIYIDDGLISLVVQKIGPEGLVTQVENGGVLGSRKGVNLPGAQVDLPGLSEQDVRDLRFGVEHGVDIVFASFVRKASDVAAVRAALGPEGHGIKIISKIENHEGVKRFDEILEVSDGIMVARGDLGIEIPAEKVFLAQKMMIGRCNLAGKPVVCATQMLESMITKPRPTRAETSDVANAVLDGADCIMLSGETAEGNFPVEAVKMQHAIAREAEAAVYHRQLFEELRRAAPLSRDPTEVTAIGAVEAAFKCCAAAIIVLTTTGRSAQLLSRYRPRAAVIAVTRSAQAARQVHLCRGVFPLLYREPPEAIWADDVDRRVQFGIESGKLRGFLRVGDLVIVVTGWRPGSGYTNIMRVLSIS
For assay [2], the target named is T1, wild type PKR. Nature of the assay: Cell based ATP assay in purified red blood cells (Cell-Titer-Glo). Conditions: Table 2; RBCs, overnight at 37° C., ATP levels. The arrangement: endogenous in cells; host or cells: purified red blood cells from healthy volunteers. The essentials:
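ATP levels were quantified by Cell-Titer-Glo after overnight 37 °C exposure of cells to compound (1:4 dilution series, 0.1% DMSO final). The cells were human erythrocytes, filter-purified to remove leukocytes and plated at 1×10^7 cells/mL in AGAM medium.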

The next assay concerns the target PKR R510Q (Homo sapiens, UniProt P30613, R510Q). Description: PKR mutant assay (R510Q), AC50, LDH/NADH-coupled, absorbance at 340 nm. The conditions noted are these: Table 2; enzyme assay; read-out: PK R510Q AC50. Format: biochemical. The essentials: as §1

T1 sequence (P30613 whole entry): as the sequence (P30613 whole entry K410E) above, with E410K counted along it
Sequence of PKR R510Q (P30613 whole entry R510Q): as the sequence (P30613 whole entry K410E) above, with E410K, R510Q counted along it

A word on the AC50: it is the concentration at which the activity in the assay is half-maximal. `Cn1c2nc(C(=O)NO)sc2c2cnn(Cc3cccc4[nH]ncc34)c(=O)c21` [Compound 138]: the AC50 on wild type PKR [1] is 301 to 800 nM; on PKR K410E it was below 300 nM; on wild type PKR [2], above 1000 nM; on PKR R510Q it was 301 to 800 nM.

Regarding `CC(=O)NCc1nc2c(s1)c1cnn(Cc3cccc4[nH]ncc34)c(=O)c1n2C` [Compound 139], the AC50 on wild type PKR [1] is below 300 nM; on PKR K410E it was below 300 nM; on wild type PKR [2], at most 1000 nM; at PKR R510Q, below 300 nM.

In the case of `Cn1c2nc(C3(c4ccccc4)CC3)sc2c2cnn(Cc3cccc4[nH]ncc34)c(=O)c21` [Compound 140], the AC50 on wild type PKR [1] is above 800 nM; on PKR K410E, above 800 nM; at wild type PKR [2], above 1000 nM; on PKR R510Q, above 800 nM.

Take `Cn1c2nc(S(N)(=O)=O)sc2c2cnn(Cc3cccc4[nH]ncc34)c(=O)c21` [Compound 141]: the AC50 on wild type PKR [1] is below 300 nM; at PKR K410E, below 300 nM; at wild type PKR [2], at most 1000 nM; at PKR R510Q, below 300 nM.

As to `Cn1c2nc(CNS(C)(=O)=O)sc2c2cnn(Cc3cccc4[nH]ncc34)c(=O)c21` [Compound 142], the AC50 on wild type PKR [1] is below 300 nM; at PKR K410E, below 300 nM; at wild type PKR [2], at most 1000 nM; at PKR R510Q, 301 to 800 nM.

Regarding `Cn1c2nc(Cc3cccc4[nH]ncc34)sc2c2cnn(Cc3cccc4[nH]ncc34)c(=O)c21` [Compound 143], the AC50 on wild type PKR [1] was below 300 nM; on PKR K410E, below 300 nM; on wild type PKR [2], above 1000 nM; on PKR R510Q, below 300 nM.

Turning to `COc1cccc(Cn2ncc3c4sc(Cc5cc[nH]n5)nc4n(C)c3c2=O)c1` [Compound 144], the AC50 on wild type PKR [1] is below 300 nM; at PKR K410E, below 300 nM; on wild type PKR [2], at most 1000 nM; at PKR R510Q, below 300 nM.

Regarding `Cn1c2nc(C#N)sc2c2cnn(Cc3csc(N)n3)c(=O)c21` [Compound 145], the AC50 on wild type PKR [1] is 301 to 800 nM; at PKR K410E, 301 to 800 nM; at wild type PKR [2], above 1000 nM; at PKR R510Q, above 800 nM.

For the molecule `Cn1c2nc(C(N)=O)sc2c2cnn(Cc3csc(N)n3)c(=O)c21` [Compound 146], the AC50 on wild type PKR [1] was 301 to 800 nM; at PKR K410E, below 300 nM; at wild type PKR [2], at most 1000 nM; at PKR R510Q, 301 to 800 nM.

For the molecule `Cn1c2nc(C#N)sc2c2cnn(Cc3cccc(N)n3)c(=O)c21` [Compound 147], the AC50 on wild type PKR [1] is below 300 nM; at PKR K410E, below 300 nM; on wild type PKR [2] it was at most 1000 nM; at PKR R510Q it was 301 to 800 nM.

On to `Cn1c2nc(C(O)c3cc[nH]n3)sc2c2cnn(Cc3cccc4[nH]ncc34)c(=O)c21` (centres unmarked) [Compound 148], for which the AC50 at wild type PKR [1] was below 300 nM; on PKR K410E it was below 300 nM; on wild type PKR [2], at most 1000 nM; at PKR R510Q it was below 300 nM.

In the case of `Cn1c2nc(NCc3ccccc3)sc2c2cnn(Cc3cccc4[nH]ncc34)c(=O)c21` [Compound 149], the AC50 was 301 to 800 nM on wild type PKR [1], 301 to 800 nM on PKR K410E, above 1000 nM on wild type PKR [2] and 301 to 800 nM at PKR R510Q.

As to `Cn1c2nc(Cc3ccc(Cl)nc3)sc2c2cnn(Cc3cccc4[nH]ncc34)c(=O)c21` [Compound 150], the AC50 at wild type PKR [1] was above 800 nM; at PKR K410E, above 800 nM; at wild type PKR [2] it was above 1000 nM; at PKR R510Q, above 800 nM.

As to `Cn1c2nc(Cc3ccccn3)sc2c2cnn(Cc3cccc4[nH]ncc34)c(=O)c21` [Compound 151], the AC50 at wild type PKR [1] was below 300 nM; on PKR K410E, below 300 nM; on wild type PKR [2], at most 1000 nM; on PKR R510Q, below 300 nM.

Regarding `Cn1c2nc(C(O)(C(N)=O)c3ccccc3)sc2c2cnn(Cc3cccc4[nH]ncc34)c(=O)c21` (centres unmarked) [Compound 152], the AC50 at wild type PKR [1] was 301 to 800 nM; at PKR K410E it was below 300 nM; at wild type PKR [2], at most 1000 nM; at PKR R510Q, 301 to 800 nM.

As to `Cn1c2nc(Cc3cncnc3)sc2c2cnn(Cc3cccc4[nH]ncc34)c(=O)c21` [Compound 153], the AC50 is above 800 nM at wild type PKR [1], above 800 nM at PKR K410E, at most 1000 nM on wild type PKR [2] and above 800 nM on PKR R510Q.

`Cn1c2nc(Cc3ccc4[nH]ncc4c3)sc2c2cnn(Cc3cccc4[nH]ncc34)c(=O)c21` [Compound 154]: the AC50 was below 300 nM at wild type PKR [1], below 300 nM at PKR K410E, at most 1000 nM at wild type PKR [2] and below 300 nM on PKR R510Q.

In the case of `Cn1c2nc(Cc3cccc(S(N)(=O)=O)c3)sc2c2cnn(Cc3cccc4[nH]ncc34)c(=O)c21` [Compound 155], the AC50 on wild type PKR [1] was 301 to 800 nM; at PKR K410E, below 300 nM; on wild type PKR [2], at most 1000 nM; on PKR R510Q, below 300 nM.

In the case of `Cn1c2nc(Cc3ccc4cn[nH]c4c3)sc2c2cnn(Cc3cccc4[nH]ncc34)c(=O)c21` [Compound 156], the AC50 is 301 to 800 nM on wild type PKR [1], below 300 nM at PKR K410E, at most 1000 nM on wild type PKR [2] and below 300 nM on PKR R510Q.

With `Cn1ccc(Cc2nc3c(s2)c2cnn(Cc4cccc5[nH]ncc45)c(=O)c2n3C)n1` [Compound 157], the half-maximal activity concentration (AC50) at wild type PKR [1] is below 300 nM; at PKR K410E, below 300 nM; on wild type PKR [2], at most 1000 nM; at PKR R510Q, below 300 nM.

In the case of `Cn1c2nc(C(N)=O)sc2c2cnn(Cc3cccc(N)n3)c(=O)c21` [Compound 158], the AC50 at wild type PKR [1] was below 300 nM; on PKR K410E, below 300 nM; at wild type PKR [2], at most 1000 nM; on PKR R510Q, below 300 nM.

As for `Cc1cccc(Cc2nc3c(s2)c2cnn(Cc4cccc5[nH]ncc45)c(=O)c2n3C)n1` [Compound 159], the AC50 on wild type PKR [1] is below 300 nM; on PKR K410E, below 300 nM; on wild type PKR [2] it was at most 1000 nM; at PKR R510Q it was below 300 nM.

On to `Cn1c2nc(Cc3cc(C(F)(F)F)[nH]n3)sc2c2cnn(Cc3cccc4[nH]ncc34)c(=O)c21` [Compound 160], for which the AC50 at wild type PKR [1] was 301 to 800 nM; at PKR K410E, 301 to 800 nM; at wild type PKR [2], at most 1000 nM; on PKR R510Q, 301 to 800 nM.

As to `Cn1c2nc(Cc3ccncc3)sc2c2cnn(Cc3cccc4[nH]ncc34)c(=O)c21` [Compound 161], the AC50 at wild type PKR [1] was above 800 nM; on PKR K410E, above 800 nM; on wild type PKR [2] it was above 1000 nM; on PKR R510Q, above 800 nM.

On to `Cn1c2nc(C(C)(O)c3cc[nH]n3)sc2c2cnn(Cc3cccc4[nH]ncc34)c(=O)c21` (centres unmarked) [Compound 162], for which the AC50 is below 300 nM on wild type PKR [1], below 300 nM on PKR K410E, at most 1000 nM on wild type PKR [2] and below 300 nM at PKR R510Q.

With `Cn1c2nc(Cc3cccnc3)sc2c2cnn(Cc3cccc4[nH]ncc34)c(=O)c21` [Compound 164], the AC50 is below 300 nM at wild type PKR [1], below 300 nM on PKR K410E, at most 1000 nM at wild type PKR [2] and below 300 nM on PKR R510Q.

As for `CCOC(=O)c1scnc1Cc1nc2c(s1)c1cnn(Cc3cccc4[nH]ncc34)c(=O)c1n2C` [Compound 165], the AC50 on wild type PKR [1] was 301 to 800 nM; at PKR K410E it was above 800 nM; on wild type PKR [2], at most 1000 nM; on PKR R510Q, 301 to 800 nM.

For the molecule `Cn1c2nc(Cc3ccon3)sc2c2cnn(Cc3cccc4[nH]ncc34)c(=O)c21` [Compound 166], the AC50 on wild type PKR [1] was 301 to 800 nM; on PKR K410E, above 800 nM; at wild type PKR [2] it was above 1000 nM; on PKR R510Q, 301 to 800 nM.

Turning to `Cn1c2nc(Cc3ncsc3CO)sc2c2cnn(Cc3cccc4[nH]ncc34)c(=O)c21` [Compound 167], the AC50 is below 300 nM on wild type PKR [1], below 300 nM on PKR K410E, at most 1000 nM on wild type PKR [2] and below 300 nM on PKR R510Q.

Turning to `Cn1c2nc(Cc3csc(CO)n3)sc2c2cnn(Cc3cccc4[nH]ncc34)c(=O)c21` [Compound 168], the AC50 on wild type PKR [1] is below 300 nM; at PKR K410E it was below 300 nM; on wild type PKR [2], at most 1000 nM; on PKR R510Q, below 300 nM.

With `COc1cccc(Cc2nc3c(s2)c2cnn(Cc4cccc5[nH]ncc45)c(=O)c2n3C)n1` [Compound 169], the AC50 at wild type PKR [1] was below 300 nM; at PKR K410E, below 300 nM; at wild type PKR [2], at most 1000 nM; on PKR R510Q, below 300 nM.

Turning to `Cn1c2nc(Cc3cccc(=O)[nH]3)sc2c2cnn(Cc3cccc4[nH]ncc34)c(=O)c21` [Compound 170], the AC50 on wild type PKR [1] was below 300 nM; at PKR K410E it was below 300 nM; at wild type PKR [2], at most 1000 nM; at PKR R510Q, below 300 nM.

Regarding `COC(=O)C(c1cc[nH]n1)c1nc2c(s1)c1cnn(Cc3cccc4[nH]ncc34)c(=O)c1n2C` (centres unmarked) [Compound 171], the AC50 on wild type PKR [1] is above 800 nM; at PKR K410E, 301 to 800 nM; at wild type PKR [2] it was at most 1000 nM; on PKR R510Q, above 800 nM.

For `Cn1c2nc(Cc3n[nH]cc3C(F)(F)F)sc2c2cnn(Cc3cccc4[nH]ncc34)c(=O)c21` [Compound 172], the AC50 on wild type PKR [1] was above 800 nM; at PKR K410E, above 800 nM; on wild type PKR [2] it was above 1000 nM; at PKR R510Q, above 800 nM.

On to `COc1ccc(Cc2nc3c(s2)c2cnn(Cc4cccc5[nH]ncc45)c(=O)c2n3C)cn1` [Compound 173], for which the AC50 was below 300 nM at wild type PKR [1], below 300 nM at PKR K410E, at most 1000 nM at wild type PKR [2] and below 300 nM on PKR R510Q.

The record behind these values is patent US11957680B2, “Pyruvate kinase activators for use in treating blood disorders” (Agios Pharmaceuticals, Inc., priority 2017, dated 2024).
